Like-named read-outs stand apart in the source and are kept apart here.
Key:
SARS-Cov-2 3CLpro = target: T1, SARS-Cov-2 3CLpro (Severe acute respiratory syndrome coronavirus 2, UniProt P0DTD1); test: biochemical; settings: 3CLpro, 30 mins preincubation, SAMDI-MS; read-out: SARS-Cov-2 IC50 (class)
T1 construct: 3CLpro and HRV3C was added using a Multidrop Combi

HRV3C = target: T2, HRV3C (Human rhinovirus 14, UniProt P03303); test: biochemical; set-up: species or system HRV; settings: HRV3C, 30 mins preincubation, SAMDI-MS
T2 construct: 3CLpro and HRV3C was added using a Multidrop Combi
T2 sequence (P03303 1538-1719): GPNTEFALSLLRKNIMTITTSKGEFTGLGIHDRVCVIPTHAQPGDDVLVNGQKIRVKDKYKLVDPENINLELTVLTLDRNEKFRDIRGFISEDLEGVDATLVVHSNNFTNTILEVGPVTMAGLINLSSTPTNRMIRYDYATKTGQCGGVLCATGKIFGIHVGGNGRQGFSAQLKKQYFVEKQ

[1] = system: human beta-coronavirus OC43; test: OC43 coronavirus antiviral assay in HeLa cells (cytopathic effect, cell-titer-glo); type: cell-based; settings: Betacoronavirus 1, OC43, HeLa, 144 h, 6 days at 33° C.
[2] = system: SARS-CoV-2-GHB-03021/2020; type: cell-based; settings: read-out: VeroE6 + CP (EC50)
[3] = system: B.1.1.7 lineage SARS-CoV-2; test: microbe, parasite or virus in culture; type: cell-based; settings: Severe acute respiratory syndrome coronavirus 2, 96 h, read-out: A549-dual_ACE2_TMPRSS2 (EC50)
human cathepsin L = target: T3, human cathepsin L (Homo sapiens, UniProt P07711); test: Cathepsin L assay (Z-FR-AMC fluorescence); type: biochemical; settings: 10 pM human cathepsin L, 30 mins preincubation, Z-FR-AMC 2 μM
T3 construct: purchased R&D Systems
T3 sequence (P07711 114-333): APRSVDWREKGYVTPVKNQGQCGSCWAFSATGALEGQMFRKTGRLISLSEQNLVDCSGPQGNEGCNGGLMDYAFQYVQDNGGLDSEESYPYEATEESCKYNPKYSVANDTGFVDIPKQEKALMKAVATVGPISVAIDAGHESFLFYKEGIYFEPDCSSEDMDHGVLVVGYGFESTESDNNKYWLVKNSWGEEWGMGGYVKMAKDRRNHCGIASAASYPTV
Method in brief: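 Human cathepsin L (10 pM) was preincubated 30 min with compound, then reactions were started with Z-FR-AMC substrate (2 μM final). AMC fluorescence (355/460 nm) was read every 2 min over 30 min. IC50 came from a four-parameter curve fit.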

SMILES: Cc1nnc(N[C@H](C(=O)N2C[C@H]3[C@@H]([C@H]2C(=O)N[C@H](C#N)C[C@@H]2CCNC2=O)[C@H]2C=C[C@@H]3C2)C(C)(C)C)o1 [Compound 43, (1S,3aR,4S,7R,7aS)-N-((S)-1-cyano-2-((S)-2-oxopyrrolidin-3-yl)ethyl)-2-((S)-3,3-dimethyl-2-((5-methyl-1,3,4-oxadiazol-2-yl)amino)butanoyl)-2,3,3a,4,7,7a-hexahydro-1H-4,7-methanoisoindole-1-carboxamide]
- IC50 (SARS-Cov-2 3CLpro): < 20 nM
- IC50 (HRV3C; read-out: HRV IC50 (bound)): > 10 µM
- EC50 ([1]; read-out: EC50 (class)): 100 to 1000 nM
- EC50 [2]: 100 to 1000 nM
- EC50 [3]: 100 to 1000 nM
- IC50 (human cathepsin L): ≥ 10 µM

SMILES: CC(C)(C)[C@H](NC(=O)C(F)(F)Cl)C(=O)N1C[C@H]2[C@@H]([C@H]1C(=O)N[C@H](C#N)C[C@@H]1CCNC1=O)[C@H]1C=C[C@@H]2C1 [Example 39, (1R,2S,3S,6R,7S)-4-[(2S)-2-(2-chloro-2,2-difluoroacetamido)-3,3-dimethylbutanoyl]-N-[(1S)-1-cyano-2-[(3S)-2-oxopyrrolidin-3-yl]ethyl]-4-azatricyclo[5.2.1.0^{2,6}]dec-8-ene-3-carboxamide]
- IC50 (SARS-Cov-2 3CLpro): < 20 nM
- IC50 (HRV3C; read-out: HRV IC50 (bound)): > 10 µM
- EC50 ([1]; read-out: EC50 (class)): < 100 nM
- EC50 [2]: < 100 nM
- EC50 [3]: < 100 nM
- IC50 (human cathepsin L): ≥ 10 µM

SMILES: CC(C)(C)[C@H](NC(=O)C1(C2CC2)CC1)C(=O)N1C[C@H]2[C@@H]([C@H]1C(=O)N[C@H](C#N)C[C@@H]1CCNC1=O)[C@H]1C=C[C@@H]2C1 [Example 35, (1R,2S,3S,6R,7S)-4-[(2S)-2-{[1,1′-bi(cyclopropane)]-1-ylformamido}-3,3-dimethylbutanoyl]-N-[(1S)-1-cyano-2-[(3S)-2-oxopyrrolidin-3-yl]ethyl]-4-azatricyclo[5.2.1.0^{2,6}]dec-8-ene-3-carboxamide]
- IC50 (SARS-Cov-2 3CLpro): 20 to 200 nM
- IC50 (HRV3C; read-out: HRV IC50 (bound)): > 10 µM
- EC50 ([1]; read-out: EC50 (class)): 100 to 1000 nM
- EC50 [2]: 100 to 1000 nM
- EC50 [3]: 1000 to 10000 nM
- IC50 (human cathepsin L): ≥ 10 µM

SMILES: CC(C)(C)[C@H](NC(=O)C(F)(F)F)C(=O)N1C[C@@H]2[C@@H]3CC[C@@H](C3)[C@@H]2[C@H]1C(=O)N[C@H](C#N)C[C@H]1Cn2nccc2NC1=O (relative stereo) [Compound 17b]
- IC50 (SARS-Cov-2 3CLpro): < 20 nM
- IC50 (HRV3C; read-out: HRV IC50 (bound)): > 10 µM
- EC50 ([1]; read-out: EC50 (class)): 100 to 1000 nM
- EC50 [2]: 100 to 1000 nM
- EC50 [3]: 100 to 1000 nM
- IC50 (human cathepsin L): ≥ 10 µM

SMILES: [2H][C@@H]1[C@H]([2H])[C@@H]2C[C@H]1[C@H]1[C@@H]2CN(C(=O)[C@@H](NC(=O)C(F)(F)F)C(C)(C)C)[C@@H]1C(=O)N[C@H](C#N)C[C@@H]1CCNC1=O [Example 32, (1S,3aR,4R,5S,6R,7S,7aS)-N-((S)-1-cyano-2-((S)-2-oxopyrrolidin-3-yl)ethyl)-2-((S)-3,3-dimethyl-2-(2,2,2-trifluoroacetamido)butanoyl)octahydro-1H-4,7-methanoisoindole-5,6-d^2-1-carboxamide]
- IC50 (SARS-Cov-2 3CLpro): < 20 nM
- IC50 (HRV3C; read-out: HRV IC50 (bound)): > 10 µM
- EC50 ([1]; read-out: EC50 (class)): < 100 nM
- EC50 [2]: < 100 nM
- EC50 [3]: < 100 nM
- IC50 (human cathepsin L): ≥ 10 µM

SMILES: O=C(NC1CC1)C(=O)C(C[C@@H]1CCNC1=O)NC(=O)[C@@H]1[C@@H]2[C@H](CN1C(=O)[C@@H]1C[C@]13CCCc1ccccc13)[C@@H]1C=C[C@H]2C1 (stereo partly drawn) [Example 11, (1S,3aR,4S,7R,7aS)—N-(4-(cyclopropylamino)-3,4-dioxo-1-((S)-2-oxopyrrolidin-3-yl)butan-2-yl)-2-((1R,2R)-3′,4′-dihydro-2′H-spiro[cyclopropane-1,1′-naphthalene]-2-carbonyl)-2,3,3a,4,7,7a-hexahydro-1H-4,7-methanoisoindole-1-carboxamide]
- IC50 (SARS-Cov-2 3CLpro): < 20 nM
- IC50 (HRV3C; read-out: HRV IC50 (class)): 0.2 to 2 µM
- EC50 ([1]; read-out: EC50 (class)): 100 to 1000 nM
- EC50 [2]: 100 to 1000 nM
- EC50 [3]: 100 to 1000 nM
- IC50 (human cathepsin L): ≥ 10 µM

SMILES: N#C[C@H](C[C@@H]1CCNC1=O)NC(=O)[C@@H]1[C@@H]2[C@H](CN1C(=O)[C@@H](NC(=O)C(F)(F)F)C13CC(C1)C3)[C@@H]1C=C[C@H]2C1 [Example 27, (1R,2S,3S,6R,7S)-4-[(2S)-2-{bicyclo[1.1.1]pentan-1-yl}-2-(2,2,2-trifluoroacetamido)acetyl]-N-[(1S)-1-cyano-2-[(3S)-2-oxopyrrolidin-3-yl]ethyl]-4-azatricyclo[5.2.1.0^{2,6}]dec-8-ene-3-carboxamide]
- IC50 (SARS-Cov-2 3CLpro): < 20 nM
- IC50 (HRV3C; read-out: HRV IC50 (bound)): > 10 µM
- EC50 ([1]; read-out: EC50 (class)): < 100 nM
- EC50 [2]: < 100 nM
- EC50 [3]: 100 to 1000 nM
- IC50 (human cathepsin L): ≥ 10 µM

SMILES: C=CC(C)(C)[C@H](NC(=O)C(F)(F)F)C(=O)N1C[C@H]2[C@@H]([C@H]1C(=O)N[C@H](C#N)C[C@@H]1CCNC1=O)[C@H]1C=C[C@@H]2C1 [Example 28, (1R,2S,3S,6R,7S)—N-[(1S)-1-cyano-2-[(3S)-2-oxopyrrolidin-3-yl]ethyl]-4-[(2S)-3,3-dimethyl-2-(2,2,2-trifluoroacetamido)pent-4-enoyl]-4-azatricyclo[5.2.1.0^{2,6}]dec-8-ene-3-carboxamide]
- IC50 (SARS-Cov-2 3CLpro): < 20 nM
- IC50 (HRV3C; read-out: HRV IC50 (bound)): > 10 µM
- EC50 ([1]; read-out: EC50 (class)): < 100 nM
- EC50 [2]: < 100 nM
- EC50 [3]: < 100 nM
- IC50 (human cathepsin L): ≥ 10 µM

SMILES: N#C[C@H](C[C@@H]1CCNC1=O)NC(=O)[C@@H]1[C@@H]2[C@H](CN1C(=O)[C@@H]1C[C@]13CCOc1ccccc13)[C@@H]1C=C[C@H]2C1 (relative stereo) [Compound 55, (1S,3aR,4S,7R,7aS)-N-((S)-1-cyano-2-((S)-2-oxopyrrolidin-3-yl)ethyl)-2-((2′R*,4S*)-spiro[chromane-4,1′-cyclopropane]-2′-carbonyl)-2,3,3a,4,7,7a-hexahydro-1H-4,7-methanoisoindole-1-carboxamide]
- IC50 (SARS-Cov-2 3CLpro): 20 to 200 nM
- IC50 (HRV3C; read-out: HRV IC50 (bound)): > 10 µM
- EC50 ([1]; read-out: EC50 (class)): 1000 to 10000 nM
- EC50 [2]: 100 to 1000 nM
- EC50 [3]: 100 to 1000 nM
- IC50 (human cathepsin L): ≥ 10 µM

SMILES: CC(C)(C)[C@H](NC(=O)C(F)(F)F)C(=O)N1C[C@@H]2[C@H]3C[C@@H]([C@@H]2[C@H]1C(=O)N[C@H](C#N)C[C@@H]1CCNC1=O)[C@H](O)C3 [Example 85, (1S,2R,3S,6R,7S,9R)—N-[(1S)-1-cyano-2-[(3S)-2-oxopyrrolidin-3-yl]ethyl]-4-[(2S)-3,3-dimethyl-2-(2,2,2-trifluoroacetamido)butanoyl]-9-hydroxy-4-azatricyclo[5.2.1.0^{2,6}]decane-3-carboxamide]
- IC50 (SARS-Cov-2 3CLpro): 200 to 2000 nM
- IC50 (HRV3C; read-out: HRV IC50 (bound)): > 10 µM
- EC50 ([1]; read-out: EC50 (bound)): > 10000 nM
- EC50 [2]: 10000 to 50000 nM
- EC50 ([3]; […], numeric bounds given instead of class symbols): > 10000 nM
- IC50 (human cathepsin L): ≥ 10 µM

SMILES: CC(C)(C)[C@H](NC(=O)C(F)(F)F)C(=O)N1C[C@H]2[C@@H]([C@H]1C(=O)NC(C#N)CC1CCc3cnnn31)[C@H]1C=C[C@@H]2C1 (stereo partly drawn) [Example 37, (1R,2S,3S,6R,7S)—N-(1-cyano-2-{4H,5H,6H-pyrrolo[1,2-c][1,2,3]triazol-6-yl}ethyl)-4-[(2S)-3,3-dimethyl-2-(2,2,2-trifluoroacetamido)butanoyl]-4-azatricyclo[5.2.1.0^{2,6}]dec-8-ene-3-carboxamide]
- IC50 (SARS-Cov-2 3CLpro): 20 to 200 nM
- IC50 (HRV3C; read-out: HRV IC50 (bound)): > 10 µM
- EC50 ([1]; read-out: EC50 (bound)): > 10000 nM
- EC50 [2]: 1000 to 10000 nM
- EC50 [3]: 1000 to 10000 nM
- IC50 (human cathepsin L): ≥ 10 µM

SMILES: C#CC(C)(C)[C@H](NC(=O)C(F)(F)F)C(=O)N1C[C@@H]2[C@@H]3CC[C@@H](C3)[C@@H]2[C@H]1C(=O)N[C@H](C#N)C[C@@H]1CCNC1=O [Example 13, (1S,2S,3S,6R,7R)—N-[(1S)-1-cyano-2-[(3S)-2-oxopyrrolidin-3-yl]ethyl]-4-[(2S)-3,3-dimethyl-2-(2,2,2-trifluoroacetamido)pent-4-ynoyl]-4-azatricyclo[5.2.1.0^{2,6}]decane-3-carboxamide]
- IC50 (SARS-Cov-2 3CLpro): 20 to 200 nM
- IC50 (HRV3C; read-out: HRV IC50 (bound)): > 10 µM
- EC50 ([1]; read-out: EC50 (class)): 100 to 1000 nM
- EC50 [2]: < 100 nM
- EC50 [3]: < 100 nM
- IC50 (human cathepsin L): ≥ 10 µM

SMILES: CN1CC(C[C@@H](C#N)NC(=O)[C@@H]2[C@@H]3[C@H](CN2C(=O)[C@@H](NC(=O)C(F)(F)F)C(C)(C)C)[C@@H]2C=C[C@H]3C2)C(=O)N1 (stereo partly drawn) [Compound 49, (1S,3aR,4S,7R,7aS)-N-((S)-1-cyano-2-(1-methyl-3-oxopyrazolidin-4-yl)ethyl)-2-((S)-3,3-dimethyl-2-(2,2,2-trifluoroacetamido)butanoyl)-2,3,3a,4,7,7a-hexahydro-1H-4,7-methanoisoindole-1-carboxamide]
- IC50 (SARS-Cov-2 3CLpro): < 20 nM
- IC50 (HRV3C; read-out: HRV IC50 (bound)): > 10 µM
- EC50 ([1]; read-out: EC50 (class)): 100 to 1000 nM
- EC50 [2]: 100 to 1000 nM
- EC50 [3]: 100 to 1000 nM
- IC50 (human cathepsin L): ≥ 10 µM

SMILES: CC(C)(C)[C@H](NC(=O)C1CC12CC2)C(=O)N1C[C@H]2[C@@H]([C@H]1C(=O)N[C@H](C#N)C[C@@H]1CCNC1=O)[C@H]1C=C[C@@H]2C1 (stereo partly drawn) [Example 34, (1R,2S,3S,6R,7S)—N-[(1S)-1-cyano-2-[(3S)-2-oxopyrrolidin-3-yl]ethyl]-4-[(2S)-3,3-dimethyl-2-{spiro[2.2]pentan-1-ylformamido}butanoyl]-4-azatricyclo[5.2.1.0^{2,6}]dec-8-ene-3-carboxamide]
- IC50 (SARS-Cov-2 3CLpro): < 20 nM
- IC50 (HRV3C; read-out: HRV IC50 (bound)): > 10 µM
- EC50 ([1]; read-out: EC50 (class)): < 100 nM
- EC50 [2]: < 100 nM
- EC50 [3]: 100 to 1000 nM
- IC50 (human cathepsin L): ≥ 10 µM

SMILES: CC(C)(C)[C@H](OCC1CC1)C(=O)N1C[C@H]2[C@@H]([C@H]1C(=O)N[C@H](C#N)C[C@@H]1CCNC1=O)[C@H]1C=C[C@@H]2C1 [Compound 56]
- IC50 (SARS-Cov-2 3CLpro): 200 to 2000 nM
- IC50 (HRV3C; read-out: HRV IC50 (bound)): > 10 µM
- EC50 ([1]; read-out: EC50 (bound)): > 10000 nM
- EC50 [2]: 1000 to 10000 nM
- EC50 [3]: 1000 to 10000 nM
- IC50 (human cathepsin L): ≥ 10 µM
